pEC50: −log10 of the molar value. Where two headings read alike, the source gives them in different places.
What was measured:
human CB2 receptors = human CB2 receptors (Homo sapiens (Human), UniProt P34972); experiment: cAMP assay, CHO cells expressing human CB2 receptors; format: cell-based
Method: (§1) CHO cells expressing human CB1 or CB2 receptors are seeded 17-24 hours prior to the experiment 50.000 cells per well in a black 96 well plate with flat clear bottom (Corning Costar #3904) in DMEM (Invitrogen No. 31331), 1×HT supplement, with 10% fetal calf serum and incubated at 5% CO2 and 37° C. in a humidified incubator. The growth medium was exchanged with Krebs Ringer Bicarbonate buffer with 1 mM IBMX and incubated at 30° C. for 30 min Compounds were added to a final assay volume of 100 μl and incubated for 30 min at 30° C. Using the cAMP-Nano-TRF detection kit the assay (Roche Diagnostics) was stopped by the addition of 50 μl lysis reagent (Tris, NaCl, 1.5% Triton X100, 2.5% NP40, 10% NaN3) and 50 μl detection solutions (20 μM mAb Alexa700-cAMP 1:1, and 48 μM Ruthenium-2-AHA-cAMP) and shaken for 2 h at room temperature. The time-resolved energy transfer is measured by a TRF reader (Evotec Technologies GmbH), equipped with a ND:YAG laser as excitation source. The plate is measured twice with the excitation at 355 nm and at the emission with a delay of 100 ns and a gate of 100 ns, total exposure time 10 s at 730 (bandwidth 30 nm) or 645 nm (bandwidth 75 nm), respectively. The FRET signal is calculated as follows: FRET=T730-Alexa730-P(T645-B645) with P═Ru730-B730/Ru645-B645, where T730 is the test well measured at […], T645 is the test well measured at 645 nm, B730 and B645 are the buffer controls at 730 nm and 645 nm, respectively. cAMP content is determined from the function of a standard curve spanning from 10 μM to 0.13 nM cAMP.
(§2) EC50 values were determined using Activity Base analysis (ID Business Solution, Limited). The EC50 values for a wide range of cannabinoid agonists generated from this assay for reference compounds were in agreement with the values published in the scientific literature.

human CB1 receptors = human CB1 receptors (Homo sapiens (Human), UniProt P21554); experiment: cAMP assay, CHO cells expressing human CB1 receptors; format: cell-based
Sequence of human CB1 receptors (P21554 whole entry): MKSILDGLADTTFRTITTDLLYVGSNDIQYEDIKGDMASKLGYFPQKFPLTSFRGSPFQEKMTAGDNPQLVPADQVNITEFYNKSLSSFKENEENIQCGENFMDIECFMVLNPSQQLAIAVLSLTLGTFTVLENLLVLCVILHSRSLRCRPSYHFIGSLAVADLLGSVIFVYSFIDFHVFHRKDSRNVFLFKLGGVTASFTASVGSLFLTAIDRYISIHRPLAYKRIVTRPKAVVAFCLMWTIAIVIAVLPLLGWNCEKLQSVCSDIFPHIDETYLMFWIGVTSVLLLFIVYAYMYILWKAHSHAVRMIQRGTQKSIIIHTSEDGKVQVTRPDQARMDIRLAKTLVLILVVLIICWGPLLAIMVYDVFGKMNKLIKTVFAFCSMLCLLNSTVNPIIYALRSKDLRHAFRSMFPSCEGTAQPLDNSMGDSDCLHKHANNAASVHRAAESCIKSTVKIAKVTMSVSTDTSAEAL
Method: as §1, §2

[1] = CHO cells expressing human CB2, cAMP, read-out: human CB2 EC50
[2] = CHO cells expressing human CB1, cAMP, read-out: human CB1 EC50

Sequence of human CB2 receptors (P34972 whole entry): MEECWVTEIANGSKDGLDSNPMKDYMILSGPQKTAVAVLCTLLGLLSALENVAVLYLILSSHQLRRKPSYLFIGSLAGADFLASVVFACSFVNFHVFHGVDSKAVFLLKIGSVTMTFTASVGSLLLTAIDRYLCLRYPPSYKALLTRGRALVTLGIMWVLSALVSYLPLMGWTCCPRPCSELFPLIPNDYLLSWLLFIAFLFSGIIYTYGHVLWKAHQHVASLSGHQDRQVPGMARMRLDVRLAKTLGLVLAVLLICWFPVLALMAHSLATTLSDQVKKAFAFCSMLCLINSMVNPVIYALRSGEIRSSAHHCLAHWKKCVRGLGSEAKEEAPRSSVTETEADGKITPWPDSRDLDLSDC

CC(C)(C)C(NC(=O)c1ccc(C2CC2)c(OCC(F)(F)F)n1)c1nccs1 (stereo not shown) [Example 306, 5-Cyclopropyl-6-(2,2,2-trifluoro-ethoxy)-pyridine-2-carboxylic acid (2,2-dimethyl-1-thiazol-2-yl-propyl)-amide]
pEC50 (human CB2 receptors; [1]): 6.86
pEC50 (human CB1 receptors; [2]): < 5.00

Cc1ccc(C(=O)NC(C)(C)c2nccs2)nc1OCC1CC1 [Example 62, 6-Cyclopropylmethoxy-5-methyl-pyridine-2-carboxylic acid (1-methyl-1-thiazol-2-yl-ethyl)-amide]
pEC50 (human CB2 receptors; [1]): 7.94
pEC50 (human CB1 receptors; [2]): 6.25

COCCOCC(C)(C)NC(=O)c1ccc(C2CC2)c(OCC2CC2)n1 [Example 117, 5-Cyclopropyl-6-cyclopropylmethoxy-pyridine-2-carboxylic acid [2-(2-methoxy-ethoxy)-1,1-dimethyl-ethyl]-amide]
pEC50 (human CB2 receptors; [1]): 6.46
pEC50 (human CB1 receptors; [2]): < 5.00

CCC(CC)(NC(=O)c1ccc(C(F)(F)F)c(OCC2CC2)n1)C(=O)NC [Example 259, 6-Cyclopropylmethoxy-5-trifluoromethyl-pyridine-2-carboxylic acid (1-ethyl-1-methylcarbamoyl-propyl)-amide]
pEC50 (human CB2 receptors; [1]): 8.29
pEC50 (human CB1 receptors; [2]): < 5.00

Cc1nc(C(C)(C)NC(=O)c2cccc(-c3ccc(F)c(Cl)c3)n2)no1 [Example 268, 6-(3-Chloro-4-fluoro-phenyl)-pyridine-2-carboxylic acid [1-methyl-1-(5-methyl-[1,2,4]oxadiazol-3-yl)-ethyl]-amide]
pEC50 (human CB2 receptors; [1]): 8.06
pEC50 (human CB1 receptors; [2]): 6.47

CC(C)C(C)(NC(=O)c1ccc(C2CC2)c(OCC2CC2)n1)C(N)=O (stereo not shown) [Example 169, N-(1-Amino-2,3-dimethyl-1-oxobutan-2-yl)-5-cyclopropyl-6-(cyclopropylmethoxy)picolinamide]
pEC50 (human CB2 receptors; [1]): 6.74
pEC50 (human CB1 receptors; [2]): < 5.00

Cc1nc([C@H](CC2CC2)NC(=O)c2ccc(C)c(OCC3CC3)n2)no1 [Example 57, 6-Cyclopropylmethoxy-5-methyl-pyridine-2-carboxylic acid [(S)-2-cyclopropyl-1-(5-methyl-[1,2,4]oxadiazol-3-yl)-ethyl]-amide]
pEC50 (human CB2 receptors; [1]): 6.50
pEC50 (human CB1 receptors; [2]): < 5.00

O=C(NC(c1ccccn1)C(F)(F)F)c1ccc(C2CC2)c(OCC(F)(F)F)n1 (stereo not shown) [Example 302, 5-Cyclopropyl-6-(2,2,2-trifluoro-ethoxy)-pyridine-2-carboxylic acid (2,2,2-trifluoro-1-pyridin-2-yl-ethyl)-amide]
pEC50 (human CB2 receptors; [1]): 6.23
pEC50 (human CB1 receptors; [2]): < 5.00

O=C(NNC1CCS(=O)(=O)C1)c1ccc(N2CC(F)(F)C2)c(OCC2CC2)n1 (stereo not shown) [Example 293, 6-Cyclopropylmethoxy-5-(3,3-difluoro-azetidin-1-yl)-pyridine-2-carboxylic acid N′-(1,1-dioxo-tetrahydro-1λ^6-thiophen-3-yl)-hydrazide]
pEC50 (human CB2 receptors; [1]): 6.10
pEC50 (human CB1 receptors; [2]): < 5.00

O=C(c1ccc(N2CCCC2)c(OCC2CC2)n1)N1CCSCC1 [Example 16, (6-Cyclopropylmethoxy-5-pyrrolidin-1-yl-pyridin-2-yl)-thiomorpholin-4-yl-methanone]
pEC50 (human CB2 receptors; [1]): 7.78
pEC50 (human CB1 receptors; [2]): < 5.00

Cc1nc([C@H](CC(C)C)NC(=O)c2ccc(C3CC3)c(OCC3CC3)n2)no1 [Example 242, 5-Cyclopropyl-6-cyclopropylmethoxy-pyridine-2-carboxylic acid [(+)-3-methyl-1-(5-methyl-[1,2,4]oxadiazol-3-yl)-butyl]-amide]
pEC50 (human CB2 receptors; [1]): 8.92
pEC50 (human CB1 receptors; [2]): < 5.00

Cc1nc([C@H](CC2CC2)NC(=O)c2ccc(C3CC3)c(S(=O)(=O)CC(C)C)n2)no1 [Example 352, 5-Cyclopropyl-6-(2-methyl-propane-1-sulfonyl)-pyridine-2-carboxylic acid [(S)-2-cyclopropyl-1-(5-methyl-[1,2,4]oxadiazol-3-yl)-ethyl]-amide]
pEC50 (human CB2 receptors; [1]): 6.72
pEC50 (human CB1 receptors; [2]): < 5.00

Cc1nc(C(C)(C)NC(=O)c2ccc(C3CC3)c(OCC3CC3)n2)no1 [Example 45, 5-Cyclopropyl-6-cyclopropylmethoxy-pyridine-2-carboxylic acid [1-methyl-1-(5-methyl-[1,2,4]oxadiazol-3-yl)-ethyl]-amide]
pEC50 (human CB2 receptors; [1]): 7.06
pEC50 (human CB1 receptors; [2]): 5.97

CC(C)C[C@H](NC(=O)c1ccc(N2CC(O)C2)c(OCC2CC2)n1)C(N)=O [Example 131, 6-Cyclopropylmethoxy-5-(3-hydroxy-azetidin-1-yl)-pyridine-2-carboxylic acid ((S)-1-carbamoyl-3-methyl-butyl)-amide]
pEC50 (human CB2 receptors; [1]): 7.11
pEC50 (human CB1 receptors; [2]): < 5.00

Cc1nc(C(C)(C)NC(=O)c2cccc(-c3cccc(Cl)c3)n2)no1 [Example 41, 6-(3-Chloro-phenyl)-pyridine-2-carboxylic acid [1-methyl-1-(5-methyl-[1,2,4]oxadiazol-3-yl)-ethyl]-amide]
pEC50 (human CB2 receptors; [1]): 7.00
pEC50 (human CB1 receptors; [2]): < 5.00

CC(C)C[C@H](NC(=O)c1ccc(C2CC2)c(OC(C)C(F)(F)F)n1)C(N)=O (stereo partly drawn) [Example 372, 5-Cyclopropyl-6-(2,2,2-trifluoro-1-methyl-ethoxy)-pyridine-2-carboxylic acid ((S)-1-carbamoyl-3-methyl-butyl)-amide]
pEC50 (human CB2 receptors): 7.27
pEC50 (human CB1 receptors): < 5.00

CN(C)C(=O)[C@H](CC1CC1)NC(=O)c1ccc(C2CC2)c(OCC2CC2)n1 [Example 222, 5-Cyclopropyl-6-cyclopropylmethoxy-pyridine-2-carboxylic acid ((S)-2-cyclopropyl-1-dimethylcarbamoyl-ethyl)-amide]
pEC50 (human CB2 receptors; [1]): 8.49
pEC50 (human CB1 receptors; [2]): < 5.00

CNC(=O)[C@H](CC(C)C)NC(=O)c1cccc(-c2ccc(F)c(Cl)c2)n1 [Example 212, (S)-6-(3-Chloro-4-fluorophenyl)-N-(4-methyl-1-(methylamino)-1-oxopentan-2-yl)picolinamide]
pEC50 (human CB2 receptors; [1]): 7.87
pEC50 (human CB1 receptors; [2]): < 5.00

CCC(CC)(NC(=O)c1ccc(OC)c(-c2cccc(Cl)c2)n1)C(=O)NC [Example 81, 6-(3-Chloro-phenyl)-5-methoxy-pyridine-2-carboxylic acid (1-ethyl-1-methylcarbamoyl-propyl)-amide]
pEC50 (human CB2 receptors; [1]): 6.38
pEC50 (human CB1 receptors; [2]): < 5.00

CC(C)(O)[C@H](CC1CC1)NC(=O)c1ccc(C2CC2)c(OCC2CC2)n1 [Example 139, 5-Cyclopropyl-6-cyclopropylmethoxy-pyridine-2-carboxylic acid ((S)-1-cyclopropylmethyl-2-hydroxy-2-methyl-propyl)-amide]
pEC50 (human CB2 receptors; [1]): 6.95
pEC50 (human CB1 receptors; [2]): < 5.00

CN(C)C(=O)C(NC(=O)c1ccc(N2CC(F)(F)C2)c(OCC2CC2)n1)c1ccccc1 (stereo not shown) [Example 255, 6-Cyclopropylmethoxy-5-(3,3-difluoro-azetidin-1-yl)-pyridine-2-carboxylic acid (dimethylcarbamoyl-phenyl-methyl)-amide]
pEC50 (human CB2 receptors; [1]): 7.21
pEC50 (human CB1 receptors; [2]): < 5.00

CNC(=O)[C@H](CC(C)(C)C)NC(=O)c1ccc(C2CC2)c(OCC2CCOCC2)n1 [Example 196, (S)-5-Cyclopropyl-N-(4,4-dimethyl-1-(methylamino)-1-oxopentan-2-yl)-6-((tetrahydro-2H-pyran-4-yl)methoxy)picolinamide]
pEC50 (human CB2 receptors; [1]): 7.99
pEC50 (human CB1 receptors; [2]): < 5.00

CCC(CC)(NC(=O)c1ccc(C(F)(F)F)c(OCC2CC2)n1)C(=O)OC [Example 249, 2-[(6-Cyclopropylmethoxy-5-trifluoromethyl-pyridine-2-carbonyl)-amino]-2-ethyl-butyric acid methyl ester]
pEC50 (human CB2 receptors; [1]): 8.66
pEC50 (human CB1 receptors; [2]): < 5.00
